Laboratory results from publication PMC6976901 (Toxicology Reports, 2020).
Where two headings read alike, the source gives them in different places. Marks after values point to notes of the source that are not given here.

Legend:
in vitro = conditions: human, Caco-2
liver (hepatotoxicity) = conditions: cited from earlier work
[1] = fraction absorbed, oral; cited from earlier work
[2] = tested on: human intestinal epithelial Caco-2 cell monolayer; conditions: apical pH 6.0 to basal pH 7.4, mean ± SD of triplicate; for observed Papp: Table 2 secondary set; for Papp: Table 1 primary set
[3] = Table 1, Hazard Evaluation Support System Integrated Platform
[4] = Table 2, Hazard Evaluation Support System Integrated Platform

Compound: Cc1cccc(N)c1C [2,3-dimethylaniline]
- Papp (in vitro): 62.4 ± 3 ×10⁻⁶ cm/s
- hepatic NOEL (liver (hepatotoxicity); [3]): 12 mg/kg/day

Compound: Cc1ccc(N)c(C)c1 [2,4-dimethylaniline]
- Papp (in vitro): 66.1 ± 2 ×10⁻⁶ cm/s
- hepatic NOEL (liver (hepatotoxicity); [3]): 2 mg/kg/day

Compound: Nc1ccccc1-c1ccccc1 [2-aminobiphenyl]
- Papp (in vitro): 57.6 ± 1.1 ×10⁻⁶ cm/s
- hepatic NOEL (liver (hepatotoxicity); [3]): 100 mg/kg/day

Compound: Nc1ccccc1Cl [2-chloroaniline]
- Papp (in vitro): 89.3 ± 2.6 ×10⁻⁶ cm/s

Compound: Oc1ccccc1Cl [2-chlorophenol]
- Papp (in vitro): 75.2 ± 8.3 ×10⁻⁶ cm/s
- hepatic NOEL (liver (hepatotoxicity); [4]): 200 mg/kg/day

Compound: Oc1nc2ccccc2[nH]1 [2-hydroxybenzimidazole]
- Papp (in vitro): 50.7 ± 1.6 ×10⁻⁶ cm/s

Compound: Oc1ccccc1-c1ccccc1 [2-hydroxybiphenyl]
- Papp (in vitro): 33.4 ± 2.9 ×10⁻⁶ cm/s

Compound: Sc1nc2ccccc2[nH]1 [2-mercaptobenzimidazole]
- Papp (in vitro): 67.3 ± 1.8 ×10⁻⁶ cm/s
- hepatic NOEL (liver (hepatotoxicity); [3]): 2 mg/kg/day

Compound: Sc1ncc[nH]1 [2-mercaptoimidazole]
- Papp (in vitro): 9.1 ± 0.3 ×10⁻⁶ cm/s

Compound: COc1cc([N+](=O)[O-])ccc1N [2-methoxy-4-nitroaniline]
- Papp (in vitro): 55.2 ± 7 ×10⁻⁶ cm/s
- hepatic NOEL (liver (hepatotoxicity); [4]): 100 mg/kg/day

Compound: Cc1ccc(N)cc1C [3,4-dimethylaniline]
- Papp (in vitro): 54.1 ± 5.8 ×10⁻⁶ cm/s
- hepatic NOEL (liver (hepatotoxicity); [3]): 50 mg/kg/day

Compound: Cc1cc(C)cc(N)c1 [3,5-dimethylaniline]
- Papp (in vitro): 67.4 ± 11.3 ×10⁻⁶ cm/s
- hepatic NOEL (liver (hepatotoxicity); [3]): 10 mg/kg/day

Compound: Nc1cccc(S(=O)(=O)O)c1 [3-aminobenzenesulfonic acid]
- Papp (in vitro): 2.1 ± 0.3 ×10⁻⁶ cm/s

Compound: Nc1cccc(O)c1 [3-aminophenol]
- Papp (in vitro): 51.3 ± 2.3 ×10⁻⁶ cm/s

Compound: N#Cc1cccnc1 [3-cyanopyridine]
- Papp (in vitro): 56.9 ± 7 ×10⁻⁶ cm/s
- hepatic NOEL (liver (hepatotoxicity); [3]): 5 mg/kg/day

Compound: CCc1cccc(O)c1 [3-ethylphenol]
- Papp (in vitro): 51.5 ± 5 ×10⁻⁶ cm/s
- hepatic NOEL (liver (hepatotoxicity); [4]): 300 mg/kg/day

Compound: Oc1cccc(-c2ccccc2)c1 [3-hydroxybiphenyl]
- Papp (in vitro): 28.4 ± 2.2 ×10⁻⁶ cm/s

Compound: Nc1cccc([N+](=O)[O-])c1 [3-nitroaniline]
- Papp (in vitro): 52 ± 5 ×10⁻⁶ cm/s
- hepatic NOEL (liver (hepatotoxicity); [3]): 15 mg/kg/day

Compound: Cc1cc(Cl)ccc1O [4-chloro-o-cresol]
- Papp (in vitro): 75.4 ± 3.9 ×10⁻⁶ cm/s
- hepatic NOEL (liver (hepatotoxicity); [4]): 250 mg/kg/day

Compound: Oc1ccc(Cl)cc1 [4-chlorophenol]
- Papp (in vitro): 43.1 ± 3.7 ×10⁻⁶ cm/s

Compound: CCc1ccc(O)cc1 [4-ethylphenol]
- Papp (in vitro): 43.7 ± 2.3 ×10⁻⁶ cm/s
- hepatic NOEL (liver (hepatotoxicity); [4]): 100 mg/kg/day

Compound: Oc1ccc(-c2ccccc2)cc1 [4-hydroxybiphenyl]
- Papp (in vitro): 44.1 ± 2.8 ×10⁻⁶ cm/s

Compound: CCC(C)c1ccc(O)cc1 (stereo not shown) [4-sec-butylphenol]
- Papp (in vitro): 40.2 ± 1.9 ×10⁻⁶ cm/s

Compound: CC(C)(c1ccccc1)c1ccc(O)cc1 [4-α-cumylphenol]
- Papp (in vitro): 19.5 ± 3.4 ×10⁻⁶ cm/s
- hepatic NOEL (liver (hepatotoxicity); [4]): 100 mg/kg/day

Compound: Cc1cc(N)c(S(=O)(=O)O)cc1Cl [5-amino-2-chlorotoluene-4-sulfonic acid]
- Papp (in vitro): 2 ± 0.2 ×10⁻⁶ cm/s
- hepatic NOEL (liver (hepatotoxicity); [3]): 1000 mg/kg/day

Compound: CCOc1ccc2ccc(=O)oc2c1 [7-ethoxycoumarin]
- Papp (in vitro): 75 ± 4.8 ×10⁻⁶ cm/s

Compound: O=c1ccc2ccc(O)cc2o1 [7-hydroxycoumarin]
- Papp (in vitro): 103 ± 17 ×10⁻⁶ cm/s

Compound: CN(C)c1ccccc1 [N,N-dimethylaniline]
- Papp (in vitro): 99.9 ± 12.9 ×10⁻⁶ cm/s

Compound: CCNc1ccccc1 [N-ethylaniline]
- Papp (in vitro): 66 ± 1 ×10⁻⁶ cm/s
- hepatic NOEL (liver (hepatotoxicity); [3]): 5 mg/kg/day

Compound: CNc1ccccc1 [N-methylaniline]
- Papp (in vitro): 46.3 ± 5 ×10⁻⁶ cm/s
- hepatic NOEL (liver (hepatotoxicity); [3]): 5 mg/kg/day

Compound: CC(=O)Nc1ccc(O)cc1 [acetaminophen, reference compound]
- Papp (in vitro): 31.9 ± 1.4 ×10⁻⁶ cm/s
- hepatic NOEL (liver (hepatotoxicity); Table 2): 250 [11] mg/kg/day
- reported human Fa [1]: 100 [23] %

Compound: Nc1ccccc1 [aniline]
- Papp (in vitro): 54.4 ± 2.6 ×10⁻⁶ cm/s

Compound: CC(C)NCC(O)COc1ccc(CC(N)=O)cc1 (stereo not shown) [atenolol]
- reported human Fa [1]: 50 [7] %

Compound: CNCC[C@@H](Oc1ccccc1C)c1ccccc1 [atomoxetine, reference compound]
- Papp (in vitro): 2.7 ± 0.1 ×10⁻⁶ cm/s
- reported human Fa [1]: 100 [8] %

Compound: COP(=O)(OC)SCn1c(=O)oc2cc(Cl)cnc21 [azamethiphos]
- Papp (in vitro): 40.2 ± 1.8 ×10⁻⁶ cm/s

Compound: c1ccc2[nH]cnc2c1 [benzimidazole]
- Papp (in vitro): 73 ± 0.6 ×10⁻⁶ cm/s

Compound: O=C(O)c1ccccc1 [benzoic acid]
- Papp (in vitro): 149 ± 16 ×10⁻⁶ cm/s

Compound: CN(C)CCCOc1nn(Cc2ccccc2)c2ccccc12 [benzydamine, reference compound]
- Papp (in vitro): 1.6 ± 0.1 ×10⁻⁶ cm/s

Compound: CC(C)(c1ccc(O)cc1)c1ccc(O)cc1 [bisphenol A]
- Papp (in vitro): 32.1 ± 1.3 ×10⁻⁶ cm/s
- hepatic NOEL (liver (hepatotoxicity); [3]): 200 mg/kg/day

Compound: Oc1ccc(Cc2ccc(O)cc2)cc1 [bisphenol F]
- observed Papp [2]: 41.5 ± 2.1 ×10⁻⁶ cm/s
- hepatic NOEL (liver (hepatotoxicity); [4]): 100 mg/kg/day

Compound: CN/C(=N/CCSCc1nc[nH]c1C)NC#N [cimetidine, reference compound]
- Papp (in vitro): 1.7 ± 0.2 ×10⁻⁶ cm/s
- reported human Fa [1]: 68 [7] %

Compound: CN1C(=O)CC[C@H]1c1cccnc1 [cotinine]
- Papp (in vitro): 41.2 ± 2.9 ×10⁻⁶ cm/s
- reported human Fa [1]: 90 [8] %

Compound: [H]/N=C(/N)c1ccc(NCc2nc3cc(C(=O)N(CCC(=O)O)c4ccccn4)ccc3n2C)cc1 [dabigatran, reference compound]
- Papp (in vitro): 3.8 ± 1.7 ×10⁻⁶ cm/s

Compound: C[C@@H]1C[C@H]2[C@@H]3CCC4=CC(=O)C=C[C@]4(C)[C@@]3(F)[C@@H](O)C[C@]2(C)[C@@]1(O)C(=O)CO [dexamethasone, reference compound]
- Papp (in vitro): 9.5 ± 1.4 ×10⁻⁶ cm/s
- reported human Fa [1]: 90 [8] %

Compound: O=C(O)Cc1ccccc1Nc1c(Cl)cccc1Cl [diclofenac, reference compound]
- Papp (in vitro): 75.6 ± 0.6 ×10⁻⁶ cm/s
- reported human Fa [1]: 82 [25] %

Compound: COc1ccc2c3c1O[C@H]1[C@@H](O)CC[C@H]4[C@@H](C2)N(C)CC[C@@]341 [dihydrocodeine, reference compound]
- Papp (in vitro): 2.4 ± 0.1 ×10⁻⁶ cm/s

Compound: c1ccc(Nc2ccccc2)cc1 [diphenylamine]
- Papp (in vitro): 15.1 ± 1.1 ×10⁻⁶ cm/s

Compound: CC(C)N(CCC(C(N)=O)(c1ccccc1)c1ccccn1)C(C)C (stereo not shown) [disopyramide, reference compound]
- Papp (in vitro): 1.4 ± 0.3 ×10⁻⁶ cm/s
- reported human Fa [1]: 83 [7] %

Compound: O=C(O)CNC(=O)c1ccccc1 [hippuric acid]
- Papp (in vitro): 0.6 ± 0.1 ×10⁻⁶ cm/s

Compound: N#Cc1cccc(C#N)c1 [isophthalonitrile]
- Papp [2]: 805 ± 8 ^a nm/s
- hepatic NOEL (liver (hepatotoxicity); [3]): 8 mg/kg/day

Compound: COc1ccc(C(=O)NCc2ccc(OCCN(C)C)cc2)cc1OC [itopride, reference compound]
- Papp (in vitro): 1.2 ± 0.3 ×10⁻⁶ cm/s

Compound: Nc1cccc2c1CN(C1CCC(=O)NC1=O)C2=O (stereo not shown) [lenalidomide, reference compound]
- Papp (in vitro): 0.7 ± 0.1 ×10⁻⁶ cm/s
- reported human Fa [1]: 90 [26] %

Compound: CC[C@H](C)C(=O)O[C@H]1C[C@@H](C)C=C2C=C[C@H](C)[C@H](CC[C@@H]3C[C@@H](O)CC(=O)O3)[C@H]21 [lovastatin, reference compound]
- Papp (in vitro): 2.1 ± 0.1 ×10⁻⁶ cm/s
- reported human Fa [1]: 31 [7] %

Compound: Cc1cccc(O)c1 [m-cresol]
- Papp (in vitro): 85.1 ± 3.5 ×10⁻⁶ cm/s
- hepatic NOEL (liver (hepatotoxicity); [3]): 100 mg/kg/day

Compound: Cc1cccc(Nc2ccccc2C(=O)O)c1C [mefenamic acid, reference compound]
- Papp (in vitro): 180 ± 8.3 ×10⁻⁶ cm/s

Compound: CN(Cc1cnc2nc(N)nc(N)c2n1)c1ccc(C(=O)N[C@@H](CCC(=O)O)C(=O)O)cc1 [methotrexate, reference compound]
- Papp (in vitro): 1.1 ± 0.2 ×10⁻⁶ cm/s
- reported human Fa [1]: 20 [24] %

Compound: COCCc1ccc(OCC(O)CNC(C)C)cc1 (stereo not shown) [metoprolol, reference compound]
- Papp (in vitro): 3.4 ± 0.1 ×10⁻⁶ cm/s

Compound: Cc1ncc2n1-c1ccc(Cl)cc1C(c1ccccc1F)=NC2 [midazolam, reference compound]
- Papp (in vitro): 31.8 ± 1.9 ×10⁻⁶ cm/s
- reported human Fa [1]: 60 [28] %

Compound: CN1CCN2c3ncccc3Cc3ccccc3C2C1 (stereo not shown) [mirtazapine, reference compound]
- Papp (in vitro): 4.6 ± 0.3 ×10⁻⁶ cm/s

Compound: CCCCC(CC)COC(=O)c1ccccc1C(=O)O (stereo not shown) [mono(2-ethylhexyl) phthalate]
- Papp [2]: 467 ± 18 nm/s

Compound: CCCCOC(=O)c1ccccc1C(=O)O [monobutyl phthalate]
- Papp (in vitro): 31.8 ± 0.8 ×10⁻⁶ cm/s

Compound: CN1CCC[C@H]1c1cccnc1 [nicotine, reference compound]
- Papp (in vitro): 5.7 ± 0.6 ×10⁻⁶ cm/s
- reported human Fa [1]: 100 [8] %

Compound: Cc1ccccc1O [o-cresol]
- Papp (in vitro): 90.5 ± 6.4 ×10⁻⁶ cm/s

Compound: Cc1cc2c(s1)Nc1ccccc1N=C2N1CCN(C)CC1 [olanzapine, reference compound]
- Papp (in vitro): 3.5 ± 0.3 ×10⁻⁶ cm/s

Compound: COc1ccc2[nH]c([S+]([O-])Cc3ncc(C)c(OC)c3C)nc2c1 (stereo not shown) [omeprazole, reference compound]
- reported human Fa [1]: 95 [7] %

Compound: Nc1ccc(C(=O)O)cc1 [p-aminobenzoic acid]
- Papp (in vitro): 58.7 ± 4 ×10⁻⁶ cm/s

Compound: Cc1ccc(O)cc1 [p-cresol]
- Papp (in vitro): 50.7 ± 4.5 ×10⁻⁶ cm/s

Compound: O=C(O)c1ccc(O)cc1 [p-hydroxybenzoic acid]
- Papp (in vitro): 60.9 ± 3 ×10⁻⁶ cm/s

Compound: CCOc1ccc(N)cc1 [p-phenetidine]
- observed Papp [2]: 58.2 ± 3.1 ×10⁻⁶ cm/s
- hepatic NOEL (liver (hepatotoxicity); [4]): 160 mg/kg/day

Compound: O=C1NC(=O)c2ccccc21 [phthalimide]
- Papp (in vitro): 93.3 ± 6.9 ×10⁻⁶ cm/s

Compound: Nc1cccc2c1C(=O)N(C1CCC(=O)NC1=O)C2=O (stereo not shown) [pomalidomide, reference compound]
- Papp (in vitro): 46.6 ± 5.7 ×10⁻⁶ cm/s
- reported human Fa [1]: 73 [29] %

Compound: CC[C@H](C)C(=O)O[C@H]1C[C@H](O)C=C2C=C[C@H](C)[C@H](CC[C@@H](O)C[C@@H](O)CC(=O)O)[C@H]21 [pravastatin, reference compound]
- Papp (in vitro): 0.9 ± 0.1 ×10⁻⁶ cm/s
- reported human Fa [1]: 13 [31] %

Compound: CC(=O)[C@H]1CC[C@H]2[C@@H]3CCC4=CC(=O)CC[C@]4(C)[C@H]3CC[C@]12C [progesterone, reference compound]
- Papp (in vitro): 11.3 ± 2 ×10⁻⁶ cm/s

Compound: CC(C)NCC(O)COc1cccc2ccccc12 (stereo not shown) [propranolol, reference compound]
- Papp (in vitro): 2.9 ± 0.3 ×10⁻⁶ cm/s

Compound: OCCOCCN1CCN(C2=Nc3ccccc3Sc3ccccc32)CC1 [quetiapine, reference compound]
- Papp (in vitro): 3.8 ± 0.4 ×10⁻⁶ cm/s
- reported human Fa [1]: 73 [30] %

Compound: N#Cc1ccc(C#N)cc1 [terephthalonitrile]
- Papp (in vitro): 57.3 ± 1.3 ×10⁻⁶ cm/s
- hepatic NOEL (liver (hepatotoxicity); [3]): 20 mg/kg/day

Compound: O=C1CCC(N2C(=O)c3ccccc3C2=O)C(=O)N1 (stereo not shown) [thalidomide, reference compound]
- Papp (in vitro): 23.5 ± 1.9 ×10⁻⁶ cm/s

Compound: CCCCNC(=O)NS(=O)(=O)c1ccc(C)cc1 [tolbutamide, reference compound]
- Papp (in vitro): 122 ± 11 ×10⁻⁶ cm/s

Compound: CN(C)C [trimethylamine]
- Papp [2]: 33 ± 1 nm/s

Compound: CC(=O)CC(c1ccccc1)c1c(O)c2ccccc2oc1=O (stereo not shown) [warfarin, reference compound]
- Papp (in vitro): 121 ± 5 ×10⁻⁶ cm/s

Compound: lucifer yellow [reference compound]
- Papp [2]: 7 ± 1 nm/s
- reported human Fa [1]: 0 [27] %
